From patent publication US11401279B2, “Pyrido[3,2-d]pyrimidine compounds as immunomodulators” (Incyte Corporation, priority 2019, dated 2022)

Tests used:
[1] = test system: PD-L1 aAPC/CHO-K1 cells and Jurkat-PD-1-NFAT effector cells; assay: Nuclear factor of activated T-cells (NFAT) assay; type: cell-based; details: Cricetulus griseus, CHO-K1; luminescence, 24 hours
Protocol: PD-L1 aAPC/CHO-Klcells (Promega) were maintained in F-12 medium with addition of 10% FBS, 200 μg/mL Hygromycin B, 250 μg/mL Geneticin (G418). Jurkat-PD-1-NFAT effector cells (Promega) were cultured in RPMI 1640 medium supplemented with 10% FBS, 100 μg/mL Hygromycin B, 500 μg/mL G418. The culture media of PD-L1 aAPC/CHO-K1 cells were first replaced with assay medium (RPMI1640 medium with 1% FBS). The PD-L1 aAPC/CHO-Klcells were then added in a white 384-well white clear bottom assay plate (CELLCOAT® Tissue Culture Plates, Greiner Bio-One) at 8000 per well in 10 μL assay medium. Test compounds were prepared by serial dilution in DMSO and 0.8 μL test compounds in DMSO were first transferred to the 384 REMP plate well (Thermofisher) by PlateMate Plus (Thermofisher) followed with addition of 50 μL plating medium. 5 μL compounds in the assay medium were transferred to the cells with 0.4% DMSO in the final assay at 2 μM. After removing the culture media, 10,000 Jurkat-PD-1-NFAT effector cells in 5 μL assay medium was dispensed into each well. The assay plate was incubated at 37° C., 5% CO2 for 24 hours. After the assay plate was equilibrated to room temp for 15 minutes, 20 μL/well of Bio-Glo™ reagent (Promega) were added. After 8 minutes incubation at room temperature, luminescence was read at with Pherastar microplate reader (BMG Labtech). The fold of induction (FOI) was calculated based on the ratio of luminescence normalized to the DMSO wells within each assay plate. The maximum percentage of induction was reported based on the ratio between the highest FOI of each compound and the maximum FOI of control compound within each assay plate. Wells with DMSO were served as the negative controls and wells containing control compound with the highest FOI were used as positive controls. EC50 determination was performed by fitting the curve of percent control activity versus the log of the compound concentration using the GraphPad Prism 6.0 software.

PD-1/PD-L1 = PD-1/PD-L1 (Homo sapiens (Human), UniProt Q9NZQ7); assay: Homogeneous Time-Resolved Fluorescence (HTRF) PD-1/PD-L1 binding assay; details: recombinant human PD-1 and PD-L1
Protocol: The assays were conducted in a standard black 384-well polystyrene plate with a final volume of 20 μL. Inhibitors were first serially diluted in DMSO and then added to the plate wells before the addition of other reaction components. The final concentration of DMSO in the assay was 1%. The assays were carried out at 25° C. in the PBS buffer (pH 7.4) with 0.05% Tween-20 and 0.1% BSA. Recombinant human PD-L1 protein (19-238) with a His-tag at the C-terminus was purchased from AcroBiosystems (PD1-H5229). Recombinant human PD-1 protein (25-167) with Fc tag at the C-terminus was also purchased from AcroBiosystems (PD1-H5257). PD-L1 and PD-1 proteins were diluted in the assay buffer and 10 μL was added to the plate well. Plates were centrifuged and proteins were preincubated with inhibitors for 40 minutes. The incubation was followed by the addition of 10 μL of HTRF detection buffer supplemented with Europium cryptate-labeled anti-human IgG (PerkinElmer-AD0212) specific for Fc and anti-His antibody conjugated to SureLight®-Allophycocyanin (APC, PerkinElmer-AD0059H). After centrifugation, the plate was incubated at 25° C. for 60 min. before reading on a PHERAstar FS plate reader (665 nm/620 nm ratio). Final concentrations in the assay were—3 nM PD1, 10 nM PD-L1, 1 nM europium anti-human IgG and 20 nM anti-His-Allophycocyanin. IC50 determination was performed by fitting the curve of percent control activity versus the log of the inhibitor concentration using the GraphPad Prism 5.0 software.

PD-L1 = PD-L1 (Homo sapiens (Human), UniProt Q9NZQ7); assay: PD-L1 whole blood internalization assay; type: cell-based; details: PD-L1 internalization in human whole blood, CD14+ cells, interferon γ, 24 hour
Protocol: To determine PD-L1 internalization in human whole blood, normal human blood (Biological Specialty Corp, Colmar. Pa.) was incubated in the presence or absence of a concentration range of test compounds and 1 ng/mL human interferon γ (R&D Systems Inc. Minn. […] Blood was then stained with PD-L1 (MIH1, eBioscience; or BD Biosciences San Jose, Calif.), CD14 (Life Technologies, Carlsbad, Calif.) for 30 minutes in the dark at room temperature. Whole Blood/red cells were lysed/fixed (lysis buffer BD Biosciences) for 5 minutes at 37° C. in the dark and then centrifuged at 1600 RPM for 5 minutes. Cells were resuspended in Stain Buffer (BD Bioscience, San Jose, Calif.) and transferred into 96 well round bottom plates (Corning). Cells were gated on CD14+(BD Biosciences) and PD-L1 expression determined by mean fluorescence intensity (MFI) (BD LSRFortessa™ X-20). IC50 determination was performed by fitting the curve of compound percent inhibition versus the log of the compound concentration using the GraphPad Prism 7.0 software.

[2] = test system: U2OS/PD-L1 cells and Jurkat-PD-1-SHP cells; assay: Src homology region 2 domain-containing phosphatase (SHP) assay; type: cell-based; details: Homo sapiens, U2OS; PathHunter chemiluminescence, 2 hours
Protocol: U2OS/PD-L1 cells (DiscoveRx Corporation) were maintained in McCoy's 5A medium with addition of 10% FBS, 0.25 μg/mL Puromycin. After removing the culture media, the cell medium was replaced with assay medium (RPMI1640 medium with 1% FBS). The U2OS/PD-L1 cells were then added in 384-well black clear bottom assay plate (CELLCOAT® Tissue Culture Plates, Greiner Bio-One) at 5000 cells per well in 20 μL assay medium. Test compounds were prepared by serial dilution in DMSO and 125 nL compound were first transferred to the 384 REMP plate well (Thermofisher) by ECHO liquid handler (Labcyte) followed with addition of 27.5 μL assay medium. 5 µL/well compounds in the assay medium were transferred to the cell plate with 0.05% DMSO in the final assay at 0.25 μM. Jurkat-PD-1-SHP cells (DiscoveRx Corporation) were cultured in RPMI1640 medium supplemented with 10% FBS, 250 μg/mL Hygromycin B, 500 μg/mL G418. After the replacement of culture media with assay medium, 5,000 Jurkat-PD-1-SHP cells in 20 μL were dispensed into each well. The assay plate was incubated at 37° C., 5% CO2 for 2 hours before 2.5 μL PathHunter reagent 1 (DiscoveRx Corporation) were added to each well. The assay plate was shaken for 1 min at 350 rpm in the dark followed with addition of 10 μL PathHunter reagent 2 (DiscoveRx Corporation). Chemiluminescent signal was recorded with TopCount reader (Perkin Elmer) after incubation at room temperature for 1 hour. Wells with DMSO were served as the positive controls and wells containing no cells were used as negative controls. IC50 determination was performed by fitting the curve of percentage of control activity versus the log of the compound concentration using the GraphPad Prism 6.0 software.

[3] = In vivo pharmacokinetics in rats; parameters: species or system Sprague Dawley rats; details: rat, cassette dosing
Protocol: For in vivo pharmacokinetic experiments, test compounds were administered to male Sprague Dawley rats or male and female Cynomolgus monkeys intravenously or via oral gavage. For intravenous (IV) dosing, test compounds were dosed at 0.5 to 1 mg/kg using a formulation of 10% dimethylacetamide (DMAC) in acidified saline via IV bolus for rat and 5 min or 10 min IV infusion for monkey. For oral (PO) dosing, test compounds were dosed at 1.0 to 3.0 mg/kg using 5% DMAC in 0.5% methylcellulose in citrate buffer (pH 3.5). Blood samples were collected at predose and various time points up to 24 hours postdose. All blood samples were collected using EDTA as the anticoagulant and centrifuged to obtain plasma samples. The plasma concentrations of test compounds were determined by LC-MS methods. The measured plasma concentrations were used to calculate PK parameters by standard noncompartmental methods using Phoenix® WinNonlin software program (version 7.0, Pharsight Corporation).
In rats and monkeys, cassette dosing of test compounds were conducted to obtain preliminary PK parameters.

[4] = male, Sprague-Dawley, plasma, 1.0 mg/kg IV

Sequence of PD-1/PD-L1 (Q9NZQ7 19-238): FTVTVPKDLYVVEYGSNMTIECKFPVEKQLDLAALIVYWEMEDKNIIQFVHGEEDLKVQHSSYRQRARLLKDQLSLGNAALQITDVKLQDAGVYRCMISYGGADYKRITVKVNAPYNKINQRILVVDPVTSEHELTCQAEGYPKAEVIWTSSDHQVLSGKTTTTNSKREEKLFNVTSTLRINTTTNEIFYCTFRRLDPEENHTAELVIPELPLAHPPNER
Sequence of PD-L1 (Q9NZQ7 19-290): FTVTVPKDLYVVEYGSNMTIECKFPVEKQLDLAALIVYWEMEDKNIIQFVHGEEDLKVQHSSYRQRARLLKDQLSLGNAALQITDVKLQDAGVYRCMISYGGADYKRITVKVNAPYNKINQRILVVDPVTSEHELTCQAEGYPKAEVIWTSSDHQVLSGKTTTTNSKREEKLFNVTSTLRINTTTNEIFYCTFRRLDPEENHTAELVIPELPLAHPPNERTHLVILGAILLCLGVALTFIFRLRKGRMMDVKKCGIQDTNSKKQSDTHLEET

Structure (SMILES) | IC50 (PD-1/PD-L1) | IC50 (PD-L1) | IC50 [2] | clearance [3, 4] | half-life [3, 4] | Vd ([3]; male, Sprague-Dawley, plasma, 1.0 mg/kg IV, read-out: Vss) | Cmax ([3]; male, Sprague-Dawley, plasma, 3.0 mg/kg PO) | AUC(0-inf) ([3]; male, Sprague-Dawley, plasma, 3.0 mg/kg PO, read-out: AUC0-inf) | F ([3]; 3.0 mg/kg PO) | EC50 [1]
Cc1c(Nc2nc(C(F)F)nc3cc(CN4CC[C@H](O)C4)cnc23)cccc1-c1cccc(NC(=O)c2nc3c(n2C)CCN(CCC24CCC(C(=O)O)(CC2)C4)C3)c1Cl [Example 3, (S)-4-(2-(2-((2-chloro-3′-((2-(difluoromethyl)-7-((3-hydroxypyrrolidin-1-yl)methyl)pyrido[3,2-d]pyrimidin-4-yl)amino)-2′-methyl-[1,1′-biphenyl]-3-yl)carbamoyl)-1-methyl-1,4,6,7-tetrahydro-5H-imidazo[4,5-c]pyridin-5-yl)ethyl)bicyclo[2.2.1]heptane-1-carboxylic Acid] | 1.5 nM | 18 nM | 2.5 nM |  |  |  |  |  |  | 4 nM
Cc1c(Nc2nc(C(F)F)nc3cc(CN[C@@H]4CCC[C@@H]4O)cnc23)cccc1-c1cccc(NC(=O)c2nc3c(n2C)CCN(CCC24CCC(C(=O)O)(CC2)C4)C3)c1Cl [Example 9, 4-(2-(2-((2-chloro-3′-((2-(difluoromethyl)-7-((((1R,2S)-2-hydroxycyclopentyl)amino)methyl)pyrido[3,2-d]pyrimidin-4-yl)amino)-2′-methyl-[1,1′-biphenyl]-3-yl)carbamoyl)-1-methyl-1,4,6,7-tetrahydro-5H-imidazo[4,5-c]pyridin-5-yl)ethyl)bicyclo[2.2.1]heptane-1-carboxylic Acid] | 1.7 nM | 6.4 nM | 4 nM |  |  |  |  |  |  | 3 nM
Cn1c(C(=O)Nc2cccc(-c3cccc(NC(=O)c4nc5c(n4C)CCN(C4CCOCC4)C5)c3Cl)c2Cl)nc2c1CCN(CC13CCC(C(=O)O)(CC1)C3)C2 [Example 179, reference compound] | 18 nM |  | 61 nM |  |  |  |  |  |  | 709 nM

The remaining molecules from weak to strong by IC50 [2], led by results:

IC50 (PD-1/PD-L1) | IC50 (PD-L1) | IC50 [2] | clearance [3, 4] | half-life [3, 4] | Vd ([3]; male, Sprague-Dawley, plasma, 1.0 mg/kg IV, read-out: Vss) | Cmax ([3]; male, Sprague-Dawley, plasma, 3.0 mg/kg PO) | AUC(0-inf) ([3]; male, Sprague-Dawley, plasma, 3.0 mg/kg PO, read-out: AUC0-inf) | F ([3]; 3.0 mg/kg PO) | Structure (SMILES) | EC50 [1]
1.5 nM | 33 nM | 4 nM |  |  |  |  |  |  | Cc1c(Nc2nc(C(F)F)nc3cc(CN4CCC[C@H]4C)cnc23)cccc1-c1cccc(NC(=O)c2nc3c(n2C)CCN(CCC24CCC(C(=O)O)(CC2)C4)C3)c1Cl [Example 8, (R)-4-(2-(2-((2-chloro-3′-((2-(difluoromethyl)-7-((2-methylpyrrolidin-1-yl)methyl)pyrido[3,2-d]pyrimidin-4-yl)amino)-2′-methyl-[1,1′-biphenyl]-3-yl)carbamoyl)-1-methyl-1,4,6,7-tetrahydro-5H-imidazo[4,5-c]pyridin-5-yl)ethyl)bicyclo[2.2.1]heptane-1-carboxylic Acid] | 7 nM
1.9 nM | 17 nM | 3.5 nM |  |  |  |  |  |  | Cc1c(Nc2nc(C(F)F)nc3cc(CN4CC[C@](C)(O)C4)cnc23)cccc1-c1cccc(NC(=O)c2nc3c(n2C)CCN(CCC24CCC(C(=O)O)(CC2)C4)C3)c1Cl [Example 4, (S)-4-(2-(2-((2-chloro-3′-((2-(difluoromethyl)-7-((3-hydroxy-3-methylpyrrolidin-1-yl)methyl)pyrido[3,2-d]pyrimidin-4-yl)amino)-2′-methyl-[1,1′-biphenyl]-3-yl)carbamoyl)-1-methyl-1,4,6,7-tetrahydro-5H-imidazo[4,5-c]pyridin-5-yl)ethyl)bicyclo[2.2.1]heptane-1-carboxylic Acid] | 4 nM
 | 31 nM | 2.2 nM | 12.7 mL/min/kg | 4.5 h | 2.99 L/kg | 182 nM | 1.43 µM·h | 30% | Cc1c(NC(=O)c2nc3c(n2C)CCN(CCC24CCC(C(=O)O)(CC2)C4)C3)cccc1-c1cccc(Nc2nc(C(F)F)nc3cc(CN4CC[C@@](C)(O)C4)cnc23)c1C [Example 6, (R)-4-(2-(2-((3′-((2-(difluoromethyl)-7-((3-hydroxy-3-methylpyrrolidin-1-yl)methyl)pyrido[3,2-d]pyrimidin-4-yl)amino)-2,2′-dimethyl-[1,1′-biphenyl]-3-yl)carbamoyl)-1-methyl-1,4,6,7-tetrahydro-5H-imidazo[4,5-c]pyridin-5-yl)ethyl)bicyclo[2.2.1]heptane-1-carboxylic Acid] | 8.2 nM
1.5 nM | 16 nM | 2.2 nM |  |  |  |  |  |  | Cc1c(Nc2nc(C(F)F)nc3cc(CN4CCCC4)cnc23)cccc1-c1cccc(NC(=O)c2nc3c(n2C)CCN(CCC24CCC(C(=O)O)(CC2)C4)C3)c1Cl [Example 7, 4-(2-(2-((2-chloro-3′-((2-(difluoromethyl)-7-(pyrrolidin-1-ylmethyl)pyrido[3,2-d]pyrimidin-4-yl)amino)-2′-methyl-[1,1′-biphenyl]-3-yl)carbamoyl)-1-methyl-1,4,6,7-tetrahydro-5H-imidazo[4,5-c]pyridin-5-yl)ethyl)bicyclo[2.2.1]heptane-1-carboxylic Acid] | 4 nM
